Assay results taken from patent US20260097047A1, “Small molecule inhibitors of the ribosome biogenesis factor NVL2” (Board of Regents, The University of Texas System, priority 2023, published 2026).
Read-outs that look alike come from different tables or passages of the source.

Test system: HCT116 cells
Experiment: Cell viability assay (CellTiter-Glo, 72 hours) in HCT116 human colorectal cancer cells
Type: cell-based
Conditions: HCT116, 72 hours, read-out: Activity
Summary of the method: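 2,000 cells/well adhered overnight, then compound added by digital dispenser with DMSO normalized to 0.5%. Viability read after 72 h at 37 °C by ATP-based CellTiter-Glo luminescence. IC50 from ten-point curves baseline-corrected to vehicle, five-parameter asymmetric least-squares fit.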

Q: With `CC#CCN1C(=O)c2ccccc2Sc2cc(NCCCOC)ccc21` [Table 6: —CH2CCMe; (CH2)3OMe; CH/CH; S] as the compound, how does the IC50 (Table 6) read?
A: < 500 nM

Q: Which IC50 (Table 6) does the source give for `CC#CCN1C(=O)c2ccccc2Sc2cc(NCCCOC)cnc21` [Table 6: —CH2CCMe; (CH2)3OMe; CH/N; S] here?
A: < 500 nM

Q: For `CC#CCN1C(=O)c2ccccc2Sc2cc(NC3CCCC3)ccc21` [Table 6: —CH2CCMe; cPent; CH/CH; S, 10-(But-2-yn-1-yl)-7-(cyclopentylamino)dibenzo[b,f][1,4]thiazepin-11 (10H)-one], which IC50 (Homo sapiens, HCT-116, Table 6) is on record?
A: < 500 nM

Q: For `CC#CCN1C(=O)c2ccccc2Sc2cc(NC3CCCC3)cnc21` [Table 6: —CH2CCMe; cPent; CH/N; S, 11-(But-2-yn-1-yl)-3-(cyclopentylamino)benzo[f]pyrido[3,2-b][1,4]thiazepin-10(11H)-one], which IC50 (Homo sapiens, HCT-116, Table 6) is on record?
A: < 500 nM

Q: With `CC#CCN1C(=O)c2ccccc2Sc2cc(NC3COC3)ccc21` [Table 6: —CH2CCMe; oxetan-3-yl; CH/CH; S, 10-(But-2-yn-1-yl)-7-(oxetan-3-ylamino)dibenzo[b,f][1,4]thiazepin-11 (10H)-one] as the compound, how does the IC50 (Homo sapiens, HCT-116, Table 6) read?
A: < 500 nM

Q: For `CC#CCN1C(=O)c2ccccc2Sc2cc(NC3COC3)cnc21` [Table 6: —CH2CCMe; oxetan-3-yl; CH/N; S], which IC50 (Table 6) is on record?
A: < 500 nM

Q: With `COc1ccc(C(=O)Nc2ccc3c(c2)Cc2ccccc2C(=O)N3CC#CC(F)(F)F)cc1` [Table 9: —CH2CCCF3; 4-MeOPh; CH2, 4-Methoxy-N-(6-oxo-5-(4,4,4-trifluorobut-2-yn-1-yl)-6, 11-dihydro-5H-dibenzo[b,e]azepin-2-yl)benzamide] as the compound, how does the IC50 (Homo sapiens, HCT-116, Table 9) read?
A: < 500 nM

Q: `COCC1CC(C(=O)Nc2ccc3c(c2)C(C#N)c2ccccc2C(=O)N3CC#CCF)C1` (stereo not drawn) [Table 9: —CH2CCCH2F; 3-MeOCH2-cBu; CHCN] was tested. Which IC50 (Table 9) did it give?
A: < 500 nM

Q: Which IC50 (Table 9) does the source give for `COC1CC(C(=O)Nc2ccc3c(c2)C(C#N)c2ccccc2C(=O)N3CC#CCF)C1` (stereo not drawn) [Table 9: —CH2CCCH2F; cis-3-MeOcBu; CHCN] here?
A: < 500 nM

Q: For `COCC1CC(C(=O)Nc2ccc3c(c2)Cc2ccccc2C(=O)N3CC#CC2CC2)C1` (stereo not drawn) [Table 9: —CH2CCCPr; 3-MeOCH2-cBu; CH2], which IC50 (Table 9) is on record?
A: < 500 nM

Q: Which IC50 (Table 9) does the source give for `CO[C@H]1C[C@@H](C(=O)Nc2ccc3c(c2)Cc2ccccc2C(=O)N3CC#CC2CC2)C1` [Table 9: —CH2CCCPr; cis-3-MeOcBu; CH2] here?
A: < 500 nM

Q: For `CO[C@H]1C[C@H](C(=O)Nc2ccc3c(c2)Cc2ccccc2C(=O)N3CC#CC2CC2)C1` [Table 9: —CH2CCCPr; trans-3-MeOcBu; CH2], which IC50 (Table 9) is on record?
A: < 500 nM

Q: How did the IC50 (Table 9) turn out when `COCC1CC(C(=O)Nc2ccc3c(c2)C(C)(O)c2ccccc2C(=O)N3CC#CCl)C1` (stereo not drawn) [Table 9: —CH2CCCl; 3-MeOCH2-cBu; CMeOH] was run?
A: < 500 nM

Q: `COc1ccc(C(=O)Nc2ccc3c(c2)C(C)(O)c2ccccc2C(=O)N3CC#CCl)cc1` (stereo not drawn) [Table 9: —CH2CCCl; 4-MeOPh; CMeOH] was tested. Which IC50 (Table 9) did it give?
A: < 500 nM

Q: For `CO[C@H]1C[C@@H](C(=O)Nc2ccc3c(c2)C(C)(O)c2ccccc2C(=O)N3CC#CCl)C1` (stereo partly drawn) [Table 9: —CH2CCCl; cis-3-MeOcBu; CMeOH], which IC50 (Table 9) is on record?
A: < 500 nM

Q: For `CO[C@H]1C[C@H](C(=O)Nc2ccc3c(c2)C(C)(O)c2ccccc2C(=O)N3CC#CCl)C1` (stereo partly drawn) [Table 9: —CH2CCCl; trans-3-MeOcBu; CMeOH], which IC50 (Table 9) is on record?
A: < 500 nM

Q: For `C#CCN1C(=O)c2ccccc2C(C#N)c2cc(NC(=O)C3CC(COC)C3)ccc21` (stereo not drawn) [Table 9: —CH2CCH; 3-MeOCH2-cBu; CHCN], which IC50 (Table 9) is on record?
A: < 500 nM

Q: Which IC50 (Table 9) does the source give for `C#CCN1C(=O)c2ccccc2C(C#N)c2cc(NC(=O)[C@H]3C[C@@H](OC)C3)ccc21` (stereo partly drawn) [Table 9: —CH2CCH; cis-3-MeOcBu; CHCN] here?
A: < 500 nM

Q: With `C#CCN1C(=O)c2ccccc2C(C#N)c2cc(NC(=O)[C@H]3C[C@H](OC)C3)ccc21` (stereo partly drawn) [Table 9: —CH2CCH; trans-3-MeOcBu; CHCN] as the compound, how does the IC50 (Table 9) read?
A: < 500 nM

Q: With `CC#CCN1C(=O)c2ccccc2C(C)c2cc(NC(=O)C3CC(COC)C3)ccc21` (stereo not drawn) [Table 9: —CH2CCMe; 3-MeOCH2-cBu; CHMe] as the compound, how does the IC50 (Table 9) read?
A: < 500 nM

Q: For `CC#CCN1C(=O)c2ccccc2C(C)(O)c2cc(NC(=O)C3CC(COC)C3)ccc21` (stereo not drawn) [Table 9: —CH2CCMe; 3-MeOCH2-cBu; CMeOH], which IC50 (Table 9) is on record?
A: < 500 nM

Q: How did the IC50 (Homo sapiens, HCT-116, Table 9) turn out when `CC#CCN1C(=O)c2ccccc2C(C#N)c2cc(NC(=O)c3ccc(OC)cc3)ccc21` (stereo not drawn) [Table 9: —CH2CCMe; 4-MeOPh; CHCN, N-(5-(But-2-yn-1-yl)-11-cyano-6-oxo-6,11-dihydro-5H-dibenzo[b,e]azepin-2-yl)-4-methoxybenzamide] was run?
A: < 500 nM

Q: With `CC#CCN1C(=O)c2ccccc2C(C)c2cc(NC(=O)c3ccc(OC)cc3)ccc21` (stereo not drawn) [Table 9: —CH2CCMe; 4-MeOPh; CHMe, N-(5-(But-2-yn-1-yl)-11-methyl-6-oxo-6,11-dihydro-5H-dibenzo[b,e]azepin-2-yl)-4-methoxybenzamide] as the compound, how does the IC50 (Homo sapiens, HCT-116, Table 9) read?
A: < 500 nM

Q: With `CC#CCN1C(=O)c2ccccc2C(C)(O)c2cc(NC(=O)c3ccc(OC)cc3)ccc21` (stereo not drawn) [Table 9: —CH2CCMe; 4-MeOPh; CMeOH, N-(5-(But-2-yn-1-yl)-11-hydroxy-11-methyl-6-oxo-6,11-dihydro-5H-dibenzo[b,e]azepin-2-yl)-4-methoxybenzamide] as the compound, how does the IC50 (Homo sapiens, HCT-116, Table 9) read?
A: < 500 nM

Q: For `CC#CCN1C(=O)c2ccccc2C(C)c2cc(NC(=O)CCCO)ccc21` (stereo not drawn) [Table 9: —CH2CCMe; (CH2)3OH; CHMe], which IC50 (Table 9) is on record?
A: < 500 nM

Q: For `CC#CCN1C(=O)c2ccccc2C(C)c2cc(NC(=O)CCCOC)ccc21` (stereo not drawn) [Table 9: —CH2CCMe; (CH2)3OMe; CHMe], which IC50 (Table 9) is on record?
A: < 500 nM

Q: With `CC#CCN1C(=O)c2ccccc2Cc2cc(NC(=O)CC3COC3)ccc21` [Table 9: —CH2CCMe; (oxetan-3-yl)CH2; CH2] as the compound, how does the IC50 (Table 9) read?
A: < 500 nM

Q: For `CC#CCN1C(=O)c2ccccc2C(C)c2cc(NC(=O)C=CCO)ccc21` (stereo not drawn) [Table 9: —CH2CCMe; CH═CHCH2OH; CHMe], which IC50 (Table 9) is on record?
A: < 500 nM

Q: For `CC#CCN1C(=O)c2ccccc2C(C)c2cc(NC(=O)C(C)CCOC)ccc21` (stereo not drawn) [Table 9: —CH2CCMe; MeO(CH2)2CHMe-; CHMe], which IC50 (Table 9) is on record?
A: < 500 nM

Q: Which IC50 (Table 9) does the source give for `CC#CCN1C(=O)c2ccccc2C(C)c2cc(NC(=O)NCCOC)ccc21` (stereo not drawn) [Table 9: —CH2CCMe; NH(CH2)2OMe; CHMe] here?
A: < 500 nM

Q: How did the IC50 (Table 9) turn out when `CC#CCN1C(=O)c2ccccc2C(C)c2cc(NC(=O)OCCOC)ccc21` (stereo not drawn) [Table 9: —CH2CCMe; O(CH2)2OMe; CHMe] was run?
A: < 500 nM

Q: With `CC#CCN1C(=O)c2ccccc2Cc2cc(NC(=O)[C@H]3C[C@@H](OC)C3)ccc21` [Table 9: —CH2CCMe; cis-3-MeOcBu; CH2] as the compound, how does the IC50 (Table 9) read?
A: < 500 nM

Q: How did the IC50 (Table 9) turn out when `CC#CCN1C(=O)c2ccccc2C(C)c2cc(NC(=O)[C@H]3C[C@@H](OC)C3)ccc21` (stereo partly drawn) [Table 9: —CH2CCMe; cis-3-MeOcBu; CHMe] was run?
A: < 500 nM

Q: `CC#CCN1C(=O)c2ccccc2C(C)(O)c2cc(NC(=O)[C@H]3C[C@@H](OC)C3)ccc21` (stereo partly drawn) [Table 9: —CH2CCMe; cis-3-MeOcBu; CMeOH] was tested. Which IC50 (Table 9) did it give?
A: < 500 nM

Q: With `CC#CCN1C(=O)c2ccccc2C(C)c2cc(NC(=O)[C@H]3C[C@@H](O)C3)ccc21` (stereo partly drawn) [Table 9: —CH2CCMe; cis-3-OH-cBu; CHMe] as the compound, how does the IC50 (Table 9) read?
A: < 500 nM

Q: Which IC50 (Table 9) does the source give for `CC#CCN1C(=O)c2ccccc2C(C)c2cc(NC(=O)C3COC3)ccc21` (stereo not drawn) [Table 9: —CH2CCMe; oxetan-3-yl; CHMe] here?
A: < 500 nM

Q: With `CC#CCN1C(=O)c2ccccc2Cc2cc(NC(=O)[C@H]3C[C@H](OC)C3)ccc21` [Table 9: —CH2CCMe; trans-3-MeOcBu; CH2] as the compound, how does the IC50 (Table 9) read?
A: < 500 nM

Q: For `CC#CCN1C(=O)c2ccccc2C(C#N)c2cc(NC(=O)[C@H]3C[C@H](OC)C3)ccc21` (stereo partly drawn) [Table 9: —CH2CCMe; trans-3-MeOcBu; CHCN], which IC50 (Table 9) is on record?
A: < 500 nM

Q: Which IC50 (Table 9) does the source give for `CC#CCN1C(=O)c2ccccc2C(C)(O)c2cc(NC(=O)[C@H]3C[C@H](OC)C3)ccc21` (stereo partly drawn) [Table 9: —CH2CCMe; trans-3-MeOcBu; CMeOH] here?
A: < 500 nM
